Assay results from ChEMBL document CHEMBL5136978, “Research progress in pharmacological activities and structure-activity relationships of tetralone scaffolds as pharmacophore and fluorescent skeleton” (Eur J Med Chem, 2022).
≈ marks a conversion by molar mass, not a printed value.

What was measured:
A-431 = assay: Antiproliferative activity against human A-431 cells assessed as cell growth inhibition incubated for 48 hrs by methylene blue staining based colorimetric assay; format: functional; details: A-431, 48 h
[1] = molecular target: T1, Amine oxidase [flavin-containing] A (Homo sapiens, UniProt P21397); assay: Inhibition of recombinant human MAO-A using kynuramine as substrate by fluorescence spectrophotometry
T1 sequence (P21397 whole entry): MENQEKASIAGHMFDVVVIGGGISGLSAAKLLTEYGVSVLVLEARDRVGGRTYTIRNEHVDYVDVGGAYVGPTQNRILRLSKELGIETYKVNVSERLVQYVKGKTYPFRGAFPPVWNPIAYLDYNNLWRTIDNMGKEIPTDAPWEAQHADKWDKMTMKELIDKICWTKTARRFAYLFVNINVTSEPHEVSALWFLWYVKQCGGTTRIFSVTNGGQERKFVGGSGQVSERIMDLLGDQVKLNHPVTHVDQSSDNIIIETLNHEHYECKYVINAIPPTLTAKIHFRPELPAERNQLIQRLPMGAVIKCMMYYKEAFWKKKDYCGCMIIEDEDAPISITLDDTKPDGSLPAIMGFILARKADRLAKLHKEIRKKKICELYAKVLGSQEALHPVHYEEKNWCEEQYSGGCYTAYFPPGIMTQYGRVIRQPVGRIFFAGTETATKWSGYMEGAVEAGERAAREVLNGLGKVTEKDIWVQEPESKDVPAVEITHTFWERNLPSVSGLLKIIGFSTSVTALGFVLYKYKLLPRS

[2] = molecular target: T2, Amine oxidase [flavin-containing] B (Homo sapiens, UniProt P27338); assay: Inhibition of recombinant human MAO-B using kynuramine as substrate by fluorescence spectrophotometry
T2 sequence (P27338 whole entry): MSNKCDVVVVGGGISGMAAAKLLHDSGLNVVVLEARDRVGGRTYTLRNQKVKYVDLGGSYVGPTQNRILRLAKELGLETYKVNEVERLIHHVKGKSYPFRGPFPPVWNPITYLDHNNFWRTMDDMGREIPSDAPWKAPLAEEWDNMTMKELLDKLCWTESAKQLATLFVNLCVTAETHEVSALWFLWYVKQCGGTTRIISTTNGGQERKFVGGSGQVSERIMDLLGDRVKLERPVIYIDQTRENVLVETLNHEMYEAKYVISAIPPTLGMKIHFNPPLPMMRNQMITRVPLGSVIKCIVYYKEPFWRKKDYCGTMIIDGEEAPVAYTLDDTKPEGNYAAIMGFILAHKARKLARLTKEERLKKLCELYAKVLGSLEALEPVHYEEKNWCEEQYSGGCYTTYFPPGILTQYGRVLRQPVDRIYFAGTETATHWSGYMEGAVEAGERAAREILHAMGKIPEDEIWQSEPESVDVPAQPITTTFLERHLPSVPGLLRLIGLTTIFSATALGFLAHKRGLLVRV

Homo sapiens = species on record: Homo sapiens; assay: Selectivity index, ratio of IC50 for recombinant human MAO-A to IC50 for recombinant human MAO-B
[3] = molecular target: T1, Amine oxidase [flavin-containing] A; assay: Inhibition of human MAO-A assessed as measuring amount of 4-hydroxyquinoline using kynuramine as substrate incubated for 20 mins by fluorescence spectrophotometry
BGC-823 = assay: Cytotoxicity against human BGC-823 cells assessed as cell growth inhibition by MTT assay; format: functional, cell-based
KB = assay: Cytotoxicity aginst human KB cells assessed as cell growth inhibition; format: functional, cell-based
[4] = molecular target: T3, Peroxisome proliferator-activated receptor gamma (Homo sapiens, UniProt P37231); assay: Displacement of isotopically-labeled PPAR-gamma (unknown origin) assessed as inhibition constant by competitive inhibition assay
T3 sequence (P37231 whole entry): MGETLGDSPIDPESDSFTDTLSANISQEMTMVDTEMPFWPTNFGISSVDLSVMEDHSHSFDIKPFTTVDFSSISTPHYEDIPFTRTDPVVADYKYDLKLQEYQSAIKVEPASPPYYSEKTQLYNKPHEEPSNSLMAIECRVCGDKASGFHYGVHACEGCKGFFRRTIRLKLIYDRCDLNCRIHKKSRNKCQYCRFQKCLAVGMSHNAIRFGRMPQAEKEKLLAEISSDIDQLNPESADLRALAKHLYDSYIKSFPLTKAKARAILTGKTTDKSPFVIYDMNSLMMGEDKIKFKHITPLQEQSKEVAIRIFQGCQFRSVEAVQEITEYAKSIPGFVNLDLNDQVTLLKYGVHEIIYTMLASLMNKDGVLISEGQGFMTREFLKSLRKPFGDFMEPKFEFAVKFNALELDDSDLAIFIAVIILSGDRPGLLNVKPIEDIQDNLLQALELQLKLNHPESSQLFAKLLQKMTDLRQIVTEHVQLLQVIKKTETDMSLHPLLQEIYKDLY

Acetylcholinesterase [5] = molecular target: T4, Acetylcholinesterase (Homo sapiens, UniProt P22303); assay: Inhibition of AChE (unknown origin) using […] preincubated for 15 mins by Ellman's method
T4 sequence (P22303 whole entry): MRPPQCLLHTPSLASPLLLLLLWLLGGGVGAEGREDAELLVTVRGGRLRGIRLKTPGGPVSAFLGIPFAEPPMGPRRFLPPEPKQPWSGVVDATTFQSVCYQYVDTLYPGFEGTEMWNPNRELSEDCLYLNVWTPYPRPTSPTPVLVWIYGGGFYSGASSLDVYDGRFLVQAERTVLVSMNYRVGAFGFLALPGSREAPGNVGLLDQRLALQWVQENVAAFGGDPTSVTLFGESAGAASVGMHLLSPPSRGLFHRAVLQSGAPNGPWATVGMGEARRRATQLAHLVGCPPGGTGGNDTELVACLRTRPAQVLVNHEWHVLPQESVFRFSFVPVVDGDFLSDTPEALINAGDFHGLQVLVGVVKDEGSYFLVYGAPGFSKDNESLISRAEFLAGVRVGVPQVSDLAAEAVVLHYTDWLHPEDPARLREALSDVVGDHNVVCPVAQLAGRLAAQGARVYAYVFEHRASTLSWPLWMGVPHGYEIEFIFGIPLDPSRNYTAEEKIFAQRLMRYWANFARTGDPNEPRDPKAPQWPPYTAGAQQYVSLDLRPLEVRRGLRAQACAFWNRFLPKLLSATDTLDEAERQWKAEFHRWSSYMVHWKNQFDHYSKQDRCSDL

Staphylococcus aureus [6] = assay: Antibacterial activity against Staphylococcus aureus MTCC 096 assessed as bacterial growth inhibition; format: functional
Escherichia coli [7] = assay: Antibacterial activity against Escherichia coli MTCC 443 assessed as bacterial growth inhibition; format: functional
Aspergillus niger = assay: Antifungal activity against Aspergillus niger MTCC 343 assessed as fungal growth inhibition; format: functional
Acetylcholinesterase [8] = molecular target: T4, Acetylcholinesterase; assay: Inhibition of AChE (unknown origin) using acetylthiocholine iodide as substrate incubated for 5 mins by Ellman's method
[9] = Inhibition of recombinant bovine mitochondrial MAO-B using benzylamine or serotonin as substrate incubated for 60 mins by fluorimetry assay; design: species or system Bos taurus
[10] = molecular target: Amyloid-beta precursor protein (Homo sapiens) (UniProt P05067); assay: Inhibition of amyloid beta (1 to 42) (unknown origin) self aggregation at 10 uM incubated for 48 hrs by thioflavin-T fluorescence method relative to control
Amyloid-beta precursor protein (Homo sapiens), sequence (P05067 whole entry): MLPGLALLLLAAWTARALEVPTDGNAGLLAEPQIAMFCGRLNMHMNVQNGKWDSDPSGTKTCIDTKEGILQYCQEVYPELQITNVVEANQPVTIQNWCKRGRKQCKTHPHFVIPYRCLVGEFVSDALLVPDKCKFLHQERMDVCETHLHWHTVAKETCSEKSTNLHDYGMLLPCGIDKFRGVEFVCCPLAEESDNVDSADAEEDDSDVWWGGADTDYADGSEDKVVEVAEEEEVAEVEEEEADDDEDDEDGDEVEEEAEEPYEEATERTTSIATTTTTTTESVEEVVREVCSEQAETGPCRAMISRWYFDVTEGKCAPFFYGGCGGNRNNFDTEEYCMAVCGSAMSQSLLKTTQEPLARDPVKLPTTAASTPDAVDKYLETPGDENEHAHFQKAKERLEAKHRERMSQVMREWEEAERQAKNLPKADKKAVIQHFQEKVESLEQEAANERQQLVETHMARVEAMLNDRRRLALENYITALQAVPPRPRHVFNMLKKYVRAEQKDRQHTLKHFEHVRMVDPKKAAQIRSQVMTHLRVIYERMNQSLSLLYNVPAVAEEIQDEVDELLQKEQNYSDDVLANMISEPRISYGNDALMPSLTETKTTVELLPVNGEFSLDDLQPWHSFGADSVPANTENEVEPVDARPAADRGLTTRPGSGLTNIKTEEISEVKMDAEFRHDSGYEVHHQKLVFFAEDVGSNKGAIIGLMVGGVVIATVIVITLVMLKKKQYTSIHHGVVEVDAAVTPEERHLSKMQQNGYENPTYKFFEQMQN

Cholinesterase = Cholinesterase (Homo sapiens, UniProt P06276)
Cholinesterase, sequence (P06276 whole entry): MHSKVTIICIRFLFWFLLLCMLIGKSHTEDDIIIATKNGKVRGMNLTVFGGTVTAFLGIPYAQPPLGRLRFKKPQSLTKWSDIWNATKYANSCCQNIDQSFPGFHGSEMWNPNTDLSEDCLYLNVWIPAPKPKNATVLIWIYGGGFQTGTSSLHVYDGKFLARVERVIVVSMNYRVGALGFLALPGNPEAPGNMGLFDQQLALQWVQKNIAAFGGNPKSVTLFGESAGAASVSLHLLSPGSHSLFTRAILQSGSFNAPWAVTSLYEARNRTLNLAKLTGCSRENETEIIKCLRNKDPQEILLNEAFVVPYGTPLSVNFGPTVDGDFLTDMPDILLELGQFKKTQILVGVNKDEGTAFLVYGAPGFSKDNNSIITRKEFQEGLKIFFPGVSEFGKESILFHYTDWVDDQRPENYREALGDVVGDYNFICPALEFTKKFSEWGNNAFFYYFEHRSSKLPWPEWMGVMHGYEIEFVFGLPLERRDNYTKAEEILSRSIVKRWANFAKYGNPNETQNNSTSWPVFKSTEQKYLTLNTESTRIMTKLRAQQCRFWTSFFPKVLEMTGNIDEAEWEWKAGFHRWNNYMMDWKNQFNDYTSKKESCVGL
Description: Inhibition of BuChE (unknown origin) using acetylthiocholine iodide as substrate incubated for 5 mins by Ellman's method

[11] = molecular target: T5, Amine oxidase [flavin-containing] A (Bos taurus, UniProt P21398)
T5 sequence (P21398 whole entry): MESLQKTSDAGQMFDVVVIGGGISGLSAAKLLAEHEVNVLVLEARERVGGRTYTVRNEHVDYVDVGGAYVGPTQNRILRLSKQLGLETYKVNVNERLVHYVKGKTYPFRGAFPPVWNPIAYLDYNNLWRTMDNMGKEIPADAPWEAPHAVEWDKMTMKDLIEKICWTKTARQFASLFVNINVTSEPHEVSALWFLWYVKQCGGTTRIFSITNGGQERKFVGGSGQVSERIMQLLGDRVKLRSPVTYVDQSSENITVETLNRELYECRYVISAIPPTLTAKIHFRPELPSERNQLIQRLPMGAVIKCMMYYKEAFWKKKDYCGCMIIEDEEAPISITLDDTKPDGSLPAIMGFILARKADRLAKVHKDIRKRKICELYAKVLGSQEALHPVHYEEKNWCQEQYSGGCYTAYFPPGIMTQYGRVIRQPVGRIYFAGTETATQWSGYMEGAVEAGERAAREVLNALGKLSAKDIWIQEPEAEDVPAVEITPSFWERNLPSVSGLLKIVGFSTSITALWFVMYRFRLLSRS
Description: Inhibition of recombinant bovine mitochondrial MAO-A using benzylamine or serotonin as substrate incubated for 60 mins by fluorimetry assay

Escherichia coli [12] = assay: Antibacterial activity against multidrug resistant Escherichia coli MDREC-KG4 clinical isolate assessed as bacterial growth inhibition; format: functional
Escherichia coli [13] = assay: Antibacterial activity against multidrug resistant Escherichia coli MDREC-KG1 clinical isolate assessed as bacterial growth inhibition; format: functional
Escherichia coli [14] = assay: Antibacterial activity against multidrug resistant Escherichia coli MDREC-EM5 mutant assessed as bacterial growth inhibition; format: functional
Escherichia coli [15] = assay: Antibacterial activity against multidrug resistant Escherichia coli MDREC-EM7 mutant assessed as bacterial growth inhibition; format: functional
Staphylococcus aureus [16] = assay: Antibacterial activity against Staphylococcus aureus ATCC 29213 assessed as bacterial growth inhibition by CLSI based protocol; format: functional, organism-based
Staphylococcus aureus [17] = assay: Antibacterial activity against methicillin-resistant Staphylococcus aureus ATCC 33591 assessed as bacterial growth inhibition by CLSI based protocol; format: functional, organism-based
[18] = system: Mycobacterium tuberculosis; assay: Antibacterial activity against Mycobacterium tuberculosis H37Rv assessed as bacterial growth inhibition; format: functional
Rattus norvegicus = species on record: Rattus norvegicus; assay: Selectivity index, ratio of Ki for A2AAR in rat striatal membrane to Ki for A1AR in rat whole brain membrane; format: cell membranes

Work on `O=C1/C(=C/c2ccncc2)CCc2ccccc21` yielded an IC50 (A-431) of under 10 µM.

`N#Cc1ccc(COc2ccc3c(c2)C(=O)CCC3)cc1` showed an IC50 [1] of 0.366 µM, an IC50 [2] of 0.047 µM and a Ratio IC50 (Homo sapiens) of 8.

In the case of `COc1ccc2c(c1)C(=O)/C(=C/c1cccnc1Cl)CC2`, the IC50 [3] is reported as 1.37 µM.

`CCCCOC1CCC(=O)c2c(O)ccc(O)c21` (stereo not given) gave an IC50 (BGC-823) of 126 µg/mL (≈ 503 µM).

`C[C@@H]1Oc2cccc3c2[C@@H](O1)[C@H](O)CC3=O` showed an IC50 (KB; kb) of 1 ppm.

Compound `C=C(C)C1Cc2cc3c(cc2C1)C(=O)C[C@@H](c1ccc(O)c(O)c1)C3` (stereo not given in full) has a Ki [4] of 4.7 µM.

`O=C1/C(=C/c2ccccc2)CCc2ccccc21` gave an IC50 (A-431) of under 10 µM.

Work on `O=C1CC(O)C(O)c2c(O)cccc21` (stereo not given) yielded an IC50 (Acetylcholinesterase [5]) of 1410 µM.

In the case of `COc1ccc2c(c1)CC[C@@H]1C2=NN(C2=NC(=O)C(C)S2)[C@@H]1c1ccc(Cl)cc1` (stereo not given in full), the MIC (Staphylococcus aureus [6]) is reported as 12.5 µg/mL (≈ 29.3 µM), the MIC (Escherichia coli [7]) is reported as 12.5 µg/mL (≈ 29.3 µM) and the MIC (Aspergillus niger) is reported as 12.5 µg/mL (≈ 29.3 µM).

`CCC1C/C(=C\c2cc(OC)c(OC)c(OC)c2Br)C(=O)c2ccccc21` (stereo not given) gave an IC50 (Acetylcholinesterase [8]) of 0.045 µM, an IC50 [9] of 0.88 µM and an inhibition [10] of 80%. It also gave an IC50 (Cholinesterase) of 12.5 µM and an IC50 [11] of 0.92 µM.

`COc1cc(C(=O)O[C@H]2CCC(=O)c3ccccc32)cc(OC)c1OC` [4-O-(3,4,5-TRIMETHOXYBENZOYL)-ALPHA-TETRALONE] showed an MIC (Escherichia coli [12]) of 250 µg/mL (≈ 702 µM), an MIC (Escherichia coli [13]) of 250 µg/mL (≈ 702 µM) and an MIC (Escherichia coli [14]) of 250 µg/mL (≈ 702 µM). The MIC (Escherichia coli [15]) was 250 µg/mL (≈ 702 µM).

Compound `O=C1CCC(O)c2c(O)cccc21` (stereo not given) has an IC50 (Acetylcholinesterase [5]) of 1080 µM.

`O=C1CC[C@H](O)c2c(O)ccc(O)c21` showed an IC50 (Staphylococcus aureus [16]) of 4960 µg/mL (≈ 25500 µM), an MIC (Staphylococcus aureus [16]) of 10000 µg/mL (≈ 51500 µM) and an IC50 (Staphylococcus aureus [17]) of 3460 µg/mL (≈ 17800 µM). It also gave an MIC (Staphylococcus aureus [17]) of 5000 µg/mL (≈ 25700 µM).

For `CC1(C)C=Cc2cc3c(cc2O1)C[C@H](c1ccc(O)c(O)c1)CC3=O`, the IC50 (KB; Homo sapiens, KB, read-out: IC50) was 1.4 µM and the Ki [4] was 5.8 µM.

In the case of `O=C1/C(=C/c2cccnc2)CCc2ccccc21`, the IC50 (A-431) is reported as under 10 µM.

In the case of `O=C1/C(=C/c2ccc(Cl)cc2Cl)CCc2ccccc21`, the IC50 (A-431) is reported as over 20 µM.

`Cc1ccc(COc2ccc3c(c2)C(=O)CCC3)cc1` showed a Ratio IC50 (Homo sapiens) of 195.

In the case of `Cc1cc(O)c2c(c1)C(O)CCC2=O` (stereo not given), the MIC [18] is reported as 100 µg/mL (≈ 520 µM).

In the case of `COc1ccc(/C=C2\CCc3c(O)cccc3C2=O)cc1OC`, the Ratio Ki (Rattus norvegicus) is reported as 1.03.

In the case of `CO[C@H]1CCC(=O)c2cccc(O)c21`, the MIC [18] is reported as 6.25 µg/mL (≈ 32.5 µM).
